Reference: patent US20250129027A1 (APOGEE PHARMACEUTICALS, INC., priority 2023, published 2025)

Tests used:
human recombinant FAAH = human recombinant FAAH (Homo sapiens (Human), UniProt O00519); assay: In vitro inhibition of FAAH activity (fluorescent inhibitor screening kit, AMC arachidonoyl amide); type: biochemical; conditions: human recombinant FAAH; read-out: Inhibition on FAAH activity (IC50)
Description: The inhibitory effect of compounds of Formula (I-IV) on the activity of human recombinant FAAH was studied using a commercial inhibitor screening kit (Cayman Chemicals, Godlewski et al., 2010 [19]). In brief, FAAH hydrolyzes AMC arachidonoyl amide resulting in the release of the fluorescent product, while the inhibitor will inhibit the FAAH activity and thus reduce the fluorescent signal. The resulting fluorophore can be analyzed using an excitation wavelength of 340-360 nm and an emission wavelength of 450-465 nm by a plate reader (Synergy H1, Biotek). Inhibition is calculated as a percentage of the treated sample over the non-treated control based on the signal values, and where possible, a range of concentrations of compounds was tested to find the IC50 values (i.e. the concentration of compound that inhibited 50% FAAH activity).

human recombinant MAGL = human recombinant MAGL (Homo sapiens (Human), UniProt Q99685); assay: In vitro inhibition of MAGL activity (inhibitor screening kit, 4-nitrophenylacetate); type: biochemical; conditions: human recombinant MAGL
Procedure: The inhibitory effect of the compounds on activity of human recombinant MAGL was also studied using a commercial inhibitor screening kit (Cayman Chemicals). In brief, MAGL hydrolyzes 4-nitrophenylacetate resulting in a yellow product, 4-nitrophenol with an absorbance at 405-412 nm, while the inhibitor will inhibit the MAGL activity and thus reduce the yellow signal. The absorbance of the yellow product can be analyzed using the plate reader. Inhibition is calculated as a percentage of the treated sample over the non-treated MAGL control based on the signal values.

Sequence of human recombinant MAGL (Q99685 whole entry): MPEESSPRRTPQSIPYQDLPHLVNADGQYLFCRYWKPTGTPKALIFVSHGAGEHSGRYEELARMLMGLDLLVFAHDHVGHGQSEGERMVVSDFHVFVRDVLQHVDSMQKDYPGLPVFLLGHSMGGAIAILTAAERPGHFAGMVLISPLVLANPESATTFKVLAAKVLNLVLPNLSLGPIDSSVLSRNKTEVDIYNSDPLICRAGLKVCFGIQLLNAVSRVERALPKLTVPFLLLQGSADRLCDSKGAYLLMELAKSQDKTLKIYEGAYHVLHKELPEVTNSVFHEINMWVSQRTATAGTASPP
Sequence of human recombinant FAAH (O00519 whole entry): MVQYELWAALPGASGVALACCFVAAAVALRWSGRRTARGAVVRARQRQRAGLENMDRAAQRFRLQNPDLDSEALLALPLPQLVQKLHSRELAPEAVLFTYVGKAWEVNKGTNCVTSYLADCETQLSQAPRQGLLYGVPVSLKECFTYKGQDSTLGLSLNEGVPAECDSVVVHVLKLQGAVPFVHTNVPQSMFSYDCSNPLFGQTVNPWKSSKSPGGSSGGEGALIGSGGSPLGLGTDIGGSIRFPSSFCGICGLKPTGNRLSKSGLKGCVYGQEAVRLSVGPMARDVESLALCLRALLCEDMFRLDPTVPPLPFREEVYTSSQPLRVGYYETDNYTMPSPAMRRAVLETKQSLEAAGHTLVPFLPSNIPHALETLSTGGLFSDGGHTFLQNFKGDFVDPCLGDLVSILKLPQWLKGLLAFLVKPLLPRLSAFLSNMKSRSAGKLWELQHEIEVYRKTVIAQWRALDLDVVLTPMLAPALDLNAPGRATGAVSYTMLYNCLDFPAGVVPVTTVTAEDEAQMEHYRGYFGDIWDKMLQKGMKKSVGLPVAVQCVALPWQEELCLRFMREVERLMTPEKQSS

Row | Compound | IC50 (human recombinant FAAH) | IC50 (human recombinant MAGL)
1 | CCCCCCCCNC(=O)Oc1cccc(-c2cncc(-c3ncco3)c2)c1 [Example 73, 3-(5-(oxazol-2-yl)pyridin-3-yl)phenyl octylcarbamate] | 1 to 10 nM | > 10000 nM
2 | 3-(5-(1,3,4-oxadiazol-2-yl pyridin-3-yl)phenyl pentylcarbamate [Example 127] | 10 to 100 nM | > 50000 nM
3 | O=C(NCC1CCCCC1)Oc1cccc(-c2cc(-c3nnco3)ccn2)c1 [Example 257, 3-(4-(1,3,4-oxadiazol-2-yl)pyridin-2-yl)phenyl (cyclohexylmethyl)carbamate] | 10 to 100 nM | > 10000 nM
4 | CN(C)c1ccc(OC(=O)NCc2ccccc2)cc1-c1cncc(-c2nnco2)c1 [Example 182, 3-(5-(1,3,4-oxadiazol-2-yl)pyridin-3-yl)-4-(dimethylamino)phenyl benzylcarbamate] | > 1000 nM | > 10000 nM
5 | COc1ccc(OC(=O)NC2CCCC2)cc1-c1cncc(-c2nccs2)c1 [Example 124, 4-methoxy-3-(5-(thiazol-2-yl)pyridin-3-yl)phenyl cyclopentylcarbamate] | 100 to 1000 nM | > 10000 nM
6 | O=C(NC1CCCC1)Oc1ccc(F)c(-c2cncc(-c3ncco3)c2)c1 [Example 85, 4-fluoro-3-(5-(oxazol-2-yl)pyridin-3-yl)phenyl cyclopentylcarbamate] | 10 to 100 nM | > 10000 nM
7 | COc1ccc(OC(=O)NC2CCCC2)cc1-c1cncc(-c2nncs2)c1 [Example 216, 3-(5-(1,3,4-thiadiazol-2-yl)pyridin-3-yl)-4-methoxyphenyl cyclopentylcarbamate] | 100 to 1000 nM | > 10000 nM
8 | O=C(NC1CC2(CCC2)C1)Oc1cccc(-c2cncc(-c3nnco3)c2)c1 [Example 147, 3-(5-(1,3,4-oxadiazol-2-yl)pyridin-3-yl)phenyl spiro[3.3]heptan-2-ylcarbamate] | 10 to 100 nM | > 10000 nM
9 | COc1ccc(OC(=O)NC2CCCCCC2)cc1-c1cncc(-c2nncs2)c1 [Example 218, 3-(5-(1,3,4-thiadiazol-2-yl)pyridin-3-yl)-4-methoxyphenyl cycloheptylcarbamate] | 10 to 100 nM | > 10000 nM
10 | O=C(Oc1cccc(-c2cncc(-c3nnco3)c2)c1)N1CCCCC1 [Example 141, 3-(5-(1,3,4-oxadiazol-2-yl)pyridin-3-yl)phenyl piperidine-1-carboxylate] | ~1000 nM | > 10000 nM
11 | O=C(NC1CCCC1)Oc1ccc(O)c(-c2cncc(-c3nnn[nH]3)c2)c1 [Example 247, 3-(5-(1H-tetrazol-5-yl)pyridin-3-yl)-4-hydroxyphenyl cyclopentylcarbamate] | > 1000 nM | > 10000 nM
12 | O=C(NC1CCCCC1)Oc1ccc(O)c(-c2cncc(-c3nnn[nH]3)c2)c1 [Example 248, 3-(5-(1H-tetrazol-5-yl)pyridin-3-yl)-4-hydroxyphenyl cyclohexylcarbamate] | > 1000 nM | > 10000 nM
13 | O=C(NC1CCCC1)Oc1ccc(O)c(-c2cncc(-c3ncn[nH]3)c2)c1 [Example 229, 3-(5-(1H-1,2,4-triazol-5-yl)pyridin-3-yl)-4-hydroxyphenyl cyclopentylcarbamate] | 10 to 100 nM | > 10000 nM
14 | Cc1ccc(-c2cncc(-c3ncco3)c2)cc1OC(=O)NCc1ccccc1 [Example 94, 2-methyl-5-(5-(oxazol-2-yl)pyridin-3-yl)phenyl benzylcarbamate] | > 1000 nM | > 1000 nM
15 | O=C(NCc1ccccc1)Oc1cc(O)cc(-c2cncc(-c3nnco3)c2)c1 [Example 162, 3-(5-(1,3,4-oxadiazol-2-yl)pyridin-3-yl)-5-hydroxyphenyl benzylcarbamate] | ~100 nM | > 10000 nM
16 | CCCCCCCCNC(=O)Oc1ccc(OC)c(-c2cncc(-c3nnn[nH]3)c2)c1 [Example 250, 3-(5-(1H-tetrazol-5-yl)pyridin-3-yl)-4-methoxyphenyl octylcarbamate] | 100 to 1000 nM | ~10000 nM
